# Source: patent US12514858B2, “CD38 inhibitors” (Astellas Engineered Small Molecules US, Incorporated, priority 2020, dated 2026)
# Values joined by “and” are separate entries in the source; they are usually repeats but may differ in a detail not shown here. Equal entries are not always repeated.
# Target: Human CD38 (Homo sapiens (Human), UniProt P28907)
# Assay: Determination of IC50 against human CD38 (CD38 Inhibitor Screening Assay Kit, glycohydrolase activity, fluorescence)
# Assay type: biochemical
# Settings: CD38 hydrolase enzyme, 30 min preincubation at room temperature, F-NAD substrate, excitation 300 nm, emission 410 nm; read-out: hCD38 IC50
# Description: CD38 hydrolase buffer (4×) was thawed on ice and 1×CD38 hydrolase buffer was prepared by diluting 4×CD38 hydrolase buffer with water. CD38 hydrolase enzyme was diluted to […] with 1×CD38 hydrolase buffer (10 ng/well). Master mix was prepared by mixing equal volumes of water and CD38 hydrolase buffer (4×) and 10 μl of the mix was added to all the wells. Following master mix addition, 10 μl of the inhibitors and 20 μl of CD38 hydrolase enzyme were added to the wells. For wells designated blank, 10 μl and 20 μl of 1× CD38 hydrolase buffer was added respectively in place of […]. The plate was covered and incubated 30 min at room temperature with slow shaking at 400 rpm. After 30 min incubation, the plate was removed and 10 μl of diluted F-NAD substrate was added to all the wells. The plate is incubated for 10 min, spun at 1200 rpm for 30 secs to remove bubbles and read in Tecan Spark using a fluorometer setting of excitation 300 nm and emission 410 nm. The reading for the blank was subtracted from all the values. IC50 for the test compounds were determined by using Graphpad prism software v7.0.
# Sequence of Human CD38 (P28907 whole entry): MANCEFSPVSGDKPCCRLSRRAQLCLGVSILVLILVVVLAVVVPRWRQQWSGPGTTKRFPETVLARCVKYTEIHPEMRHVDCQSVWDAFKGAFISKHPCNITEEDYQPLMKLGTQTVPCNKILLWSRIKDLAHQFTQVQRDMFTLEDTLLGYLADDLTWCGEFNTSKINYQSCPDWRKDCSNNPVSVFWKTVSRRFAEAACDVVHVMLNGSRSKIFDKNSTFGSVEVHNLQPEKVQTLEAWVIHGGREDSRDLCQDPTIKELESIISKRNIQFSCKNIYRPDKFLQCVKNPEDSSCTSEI
row,Structure (SMILES),IC50
1,"COCCO[C@H]1CC[C@H](NC(=O)c2cc(C)nc(-n3ccnc3)c2)CC1 [Ex. 46, 2-(1H-imidazol-1-yl)-N-((1r,4r)-4-(2-methoxyethoxy)cyclohexyl)-6-methylisonicotinamide]",0.144 µM
2,"CCS(=O)(=O)N[C@H]1CC[C@H](NC(=O)c2ccnc(-n3ccnc3)n2)CC1 [Ex. 53, N-((1r,4r)-4-(ethylsulfonamido)cyclohexyl)-2-(1H-imidazol-1-yl)pyrimidine-4-carboxamide]",0.0166 µM and 0.0088 µM
3,"COCCO[C@H]1CC[C@H](NC(=O)c2cc(SC)nc(-c3cncs3)n2)CC1 [Ex. 7, N-((1r,4r)-4-(2-methoxyethoxy)cyclohexyl)-6-(methylthio)-2-(thiazol-5-yl)pyrimidine-4-carboxamide]",> 10 µM
4,"COCCO[C@H]1CC[C@H](NC(=O)c2cc(C(F)F)nc(-n3ccnc3)n2)CC1 [Ex. 52, 6-(Difluoromethyl)-2-(1H-imidazol-1-yl)-N-((1r,4r)-4-(2-methoxyethoxy)cyclohexyl)pyrimidine-4-carboxamide]",0.089 µM
5,"COCCO[C@H]1CC[C@H](NC(=O)c2cc(OC)cc(-n3ccnc3)n2)CC1 [Ex. 62, 6-(1H-imidazol-1-yl)-4-methoxy-N-((1r,4r)-4-(2-methoxyethoxy)cyclohexyl) picolinamide]",0.0867 µM
6,"COCCO[C@H]1CC[C@H](NC(=O)c2cc(-c3cncs3)nc(-c3cncs3)c2)CC1 [Ex. 2, N-((1r,4r)-4-(2-methoxyethoxy)cyclohexyl)-2,6-di(thiazol-5-yl)isonicotinamide]",> 0.1 µM

# Continued by falling IC50, values first:
row,IC50,Structure (SMILES)
1,0.053 µM,"COCCO[C@H]1CC[C@H](NC(=O)c2cc(-c3cnn(C)c3)nc(-c3cncs3)n2)CC1 [Ex. 6, N-((1r,4r)-4-(2-methoxyethoxy)cyclohexyl)-6-(1-methyl-1H-pyrazol-4-yl)-2-(thiazol-5-yl)pyrimidine-4-carboxamide]"
2,0.04 µM,"C=Cc1cc(C(=O)N[C@H]2CC[C@H](OCCOC)CC2)nc(-n2ccnc2)c1 [Ex. 57, 6-(1H-imidazol-1-yl)-N-((1r,4r)-4-(2-methoxyethoxy)cyclohexyl)-4-vinylpicolinamide]"
3,0.034 µM,"COCCO[C@H]1CC[C@H](NC(=O)c2cc(-c3cnn(C)c3)nc(-c3cncs3)c2)CC1 [Ex. 3, N-((1r,4r)-4-(2-methoxyethoxy)cyclohexyl)-2-(1-methyl-1H-pyrazol-4-yl)-6-(thiazol-5-yl)isonicotinamide]"
4,0.031 µM,"COCCO[C@H]1CC[C@H](NC(=O)c2cc(C#N)nc(-n3ccnc3)n2)CC1 [Ex. 47, 6-cyano-2-(1H-imidazol-1-yl)-N-((1r,4r)-4-(2-methoxyethoxy)cyclohexyl)pyrimidine-4-carboxamide]"
5,0.028 µM,"CO[C@]1(C)CC[C@@H](NC(=O)c2ccnc(-n3ccnc3)n2)CC1 [Ex. 54, 2-(1H-imidazol-1-yl)-N-((1r,4r)-4-methoxy-4-methylcyclohexyl)pyrimidine-4-carboxamide]"
6,0.0209 µM,"COCCO[C@H]1CC[C@H](NC(=O)c2cc(C(F)F)cc(-n3ccnc3)n2)CC1 [Ex. 59, 4-(difluoromethyl)-6-(1H-imidazol-1-yl)-N-((1r,4r)-4-(2-methoxyethoxy)cyclohexyl)picolinamide]"
7,0.018 µM,"COCCO[C@H]1CC[C@H](NC(=O)c2cc(C(N)=O)nc(-n3ccnc3)n2)CC1 [Ex. 48, 2-(1H-imidazol-1-yl)-N-((1r,4r)-4-(2-methoxyethoxy)cyclohexyl)pyrimidine-4,6-dicarboxamide]"
8,0.0048 µM,"Cc1cc(C(=O)N[C@H]2CC[C@H](OC(F)F)CC2)nc(-n2ccnc2)n1 [Ex. 42, N-((1r,4r)-4-(difluoromethoxy)cyclohexyl)-2-(1H-imidazol-1-yl)-6-methylpyrimidine-4-carboxamide]"
